Key:
PI3Kα [1] = molecular target: T1, PI3Kα (Homo sapiens, UniProt P42336); test: ADP-Glo biochemical assay; conditions: purified protein, 10 μM ATP, read-out: IC50 against PI3Kα (PIK3CA)
T1 construct: purchased Invitrogen

PI3Kβ = molecular target: T2, PI3Kβ (Homo sapiens, UniProt P42338); test: ADP-Glo biochemical assay; conditions: purified protein, 10 μM ATP, read-out: IC50 against PI3Kβ (PIK3CB)
T2 construct: purchased Sigma

PI3Kγ = molecular target: T3, PI3Kγ (Homo sapiens, UniProt P48736); test: ADP-Glo biochemical assay; conditions: purified protein, 50 μM ATP, read-out: IC50 against PI3Kγ (PIK3CG)
T3 construct: purchased Invitrogen

PIK3C2A = molecular target: T4, PIK3C2A (Homo sapiens, UniProt O00443); test: ADP-Glo biochemical assay; conditions: 50 μM ATP, read-out: IC50 against PIK3C2A
T4 construct: purchased Invitrogen

PIK3C2B = molecular target: T5, PIK3C2B (Homo sapiens, UniProt O00750); test: ADP-Glo biochemical assay; conditions: 50 μM ATP, read-out: IC50 against PIK3C2B
T5 construct: purchased Invitrogen

PI3Kα [2] = molecular target: T6, PI3Kα (Mus musculus, UniProt P42337); test: PI3K isoforms cellular selectivity assay (AKT phosphorylation, NIH-3T3, PDGF-BB); type: cell-based; conditions: NIH-3T3 cells, PDGF-BB stimulation
T6 construct: endogenous in cells; host or cells: NIH-3T3 (ATCC)
Protocol: Cells were lysed and AKT phosphorylation was determined by Western Blotting. Intensity of the bands was determined using ImageJ 1.42q (NIH, USA) and normalized to total AKT (loading control).

PI3Kδ [3] = molecular target: T7, PI3Kδ (Homo sapiens, UniProt O00329); test: PI3K isoforms cellular selectivity assay (AKT phosphorylation, Raji, anti-IgM); type: cell-based; conditions: Raji cells, anti-IgM stimulation
mTOR kinase = molecular target: T8, mTOR kinase (Homo sapiens, UniProt P42345); test: DiscoveRx's KinomeScan binding; conditions: read-out: % control number, mTOR
T8 construct: purchased DiscoveRx (KinomeScan platform)

[4] = system: LC3BII accumulation in HeLa cells; test: LC3BII accumulation in the presence of EBSS and HCQ (immunoblot); type: cell-based; conditions: Homo sapiens, EBSS and HCQ (25 μM), read-out: EC50 prevention of LC3BII accumulation
Protocol: (§1) HeLa cells were treated with different concentrations of inhibitors for 16 hours. For all immunofluorescence experiments, cells were fixed in -20 °C methanol for 5 minutes or 3.7% (v/v) formaldehyde in phosphate-buffered saline (PBS) for 20 minutes. For LC3B staining, cells were fixed in -20 °C methanol. For EEA1 and LAMP1 staining, cells were fixed in PBS+ formaldehyde. Cells were then permeabilized with TBSTx (0.1% Triton X-100), blocked in AbDil (TBSTx + 2% BSA + 0.1% NaN3), and probed with primary and secondary antibodies diluted in AbDil. Cells were rinsed thoroughly with TBSTx and mounted by anti-fade prolong Gold with DAPI. Images were taken using a Leica DMI4000B fluorescent microscope. All experiments were repeated at least three times). […] Cells were lysed in lysis buffer. P62, LC3B, and GAPDH antibodies were used for immunoblotting.

[5] = system: LAMP1 localization in HeLa cells; test: Immunofluorescence of LAMP1 localization; type: cell-based
Protocol: as §1

U937 = test: Anti-proliferative effect; type: cell-based; conditions: Homo sapiens, U-937, read-out: GI50 U937
NB4 = test: Anti-proliferative effect; type: cell-based; conditions: Homo sapiens, read-out: GI50 NB4
HL-60 = test: Anti-proliferative effect; type: cell-based; conditions: Homo sapiens, HL-60, read-out: GI50 HL-60
OCI-AML-3 [6] = test: Anti-proliferative effect; type: cell-based; conditions: Homo sapiens, AML(FLT3wt)
SKM-1 = test: Anti-proliferative effect; type: cell-based; conditions: Homo sapiens, SKM-1, read-out: GI50 SKM-1
MOLM-14 = test: Anti-proliferative effect; type: cell-based; conditions: AML (FLT3-ITD)
MV4-11 [7] = test: Anti-proliferative effect; type: cell-based; conditions: AML (FLT3-ITD)
HEL = test: Anti-proliferative effect; type: cell-based; conditions: Homo sapiens, read-out: GI50 HEL
HT = test: Anti-proliferative effect; type: cell-based; conditions: Homo sapiens, read-out: GI50 HT
Namalwa = test: Anti-proliferative effect; type: cell-based; conditions: read-out: GI50 Namalwa
Hs 505T = test: Anti-proliferative effect; type: cell-based; conditions: Homo sapiens, read-out: GI50 Hs 505T
MEC-1 = test: Anti-proliferative effect; type: cell-based; conditions: Homo sapiens, MEC1; CLL
OCI-AML-3 [8] = test: Colony formation (colonogenic assay); type: cell-based; conditions: Homo sapiens
MV4-11 [9] = test: Colony formation (colonogenic assay); type: cell-based; conditions: Homo sapiens, AML
MEC-2 [10] = test: Colony formation (colonogenic assay); type: cell-based; conditions: MEC2; CLL
MV4-11 [11] = test: Induction of apoptosis (PARP cleavage); type: cell-based
MEC-2 [12] = test: Induction of apoptosis (PARP cleavage); type: cell-based; conditions: MEC-2, evident at 3 μM to 10 μM
OCI-AML-2 = test: Autophagy markers LC3BII and p62 (immunoblotting); type: cell-based
MV4-11 [13] = test: Autophagy markers LC3BII and p62 (immunoblotting); type: cell-based
MV4-11 [14] = test: Cell cycle analysis; type: cell-based; conditions: MV4-11, 48 h treatment
OCI-AML-3 [15] = test: Cell cycle analysis; type: cell-based; conditions: OCI-AML-3, 48 h treatment
PI3Kδ [16] = molecular target: T7, PI3Kδ; test: Kinase kinetic assay with varied ATP; type: biochemical; design: purchased Invitrogen; conditions: varied ATP concentrations
Protocol: Kinetic analyses of PI3Kδ and Vps34 were performed using a luminometric kinase assay varying the concentration of ATP using the ADP-Glo reagents (Promega). […] After 60 min incubation at RT, varied concentrations of ATP and 0.1 mM substrate (PIP2:PS for PI3Kδ, PI:PS for Vps34) were added and incubated for 60 min at 37° C. The overall rate of reaction was determined as the slope of the decreasing phase of the reaction. Each data point was collected in duplicate and kinetic parameters were obtained using Prism 5.0 (GraphPad Software, San Diego, CA).

T7 sequence (O00329 whole entry, canonical isoform): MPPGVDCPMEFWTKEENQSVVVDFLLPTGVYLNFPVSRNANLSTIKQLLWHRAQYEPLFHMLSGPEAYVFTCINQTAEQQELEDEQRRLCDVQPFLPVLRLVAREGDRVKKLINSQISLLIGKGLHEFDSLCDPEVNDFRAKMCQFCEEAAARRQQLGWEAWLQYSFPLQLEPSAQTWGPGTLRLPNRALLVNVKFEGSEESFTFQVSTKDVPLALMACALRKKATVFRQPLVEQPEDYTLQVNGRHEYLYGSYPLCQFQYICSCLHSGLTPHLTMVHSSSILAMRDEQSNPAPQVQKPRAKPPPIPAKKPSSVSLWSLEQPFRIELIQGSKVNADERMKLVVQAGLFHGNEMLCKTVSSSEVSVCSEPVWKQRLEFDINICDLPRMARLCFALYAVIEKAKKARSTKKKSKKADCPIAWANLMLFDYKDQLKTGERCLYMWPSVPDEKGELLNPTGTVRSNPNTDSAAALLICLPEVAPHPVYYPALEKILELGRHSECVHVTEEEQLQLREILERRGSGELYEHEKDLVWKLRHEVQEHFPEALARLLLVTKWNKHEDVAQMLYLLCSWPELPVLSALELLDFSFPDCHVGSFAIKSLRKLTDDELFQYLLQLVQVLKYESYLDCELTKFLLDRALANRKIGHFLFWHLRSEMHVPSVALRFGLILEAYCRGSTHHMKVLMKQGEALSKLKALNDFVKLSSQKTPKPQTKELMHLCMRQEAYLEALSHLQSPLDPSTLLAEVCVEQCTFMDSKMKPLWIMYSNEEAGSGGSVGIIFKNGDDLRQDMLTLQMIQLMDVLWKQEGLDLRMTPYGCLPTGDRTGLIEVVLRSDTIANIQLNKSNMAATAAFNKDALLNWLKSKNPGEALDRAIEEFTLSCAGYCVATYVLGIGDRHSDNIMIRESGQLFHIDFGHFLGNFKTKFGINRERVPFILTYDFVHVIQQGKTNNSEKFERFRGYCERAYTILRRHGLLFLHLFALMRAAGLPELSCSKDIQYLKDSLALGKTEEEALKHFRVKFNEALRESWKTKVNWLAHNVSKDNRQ
T7 sequence (P27986 whole entry partner, canonical isoform): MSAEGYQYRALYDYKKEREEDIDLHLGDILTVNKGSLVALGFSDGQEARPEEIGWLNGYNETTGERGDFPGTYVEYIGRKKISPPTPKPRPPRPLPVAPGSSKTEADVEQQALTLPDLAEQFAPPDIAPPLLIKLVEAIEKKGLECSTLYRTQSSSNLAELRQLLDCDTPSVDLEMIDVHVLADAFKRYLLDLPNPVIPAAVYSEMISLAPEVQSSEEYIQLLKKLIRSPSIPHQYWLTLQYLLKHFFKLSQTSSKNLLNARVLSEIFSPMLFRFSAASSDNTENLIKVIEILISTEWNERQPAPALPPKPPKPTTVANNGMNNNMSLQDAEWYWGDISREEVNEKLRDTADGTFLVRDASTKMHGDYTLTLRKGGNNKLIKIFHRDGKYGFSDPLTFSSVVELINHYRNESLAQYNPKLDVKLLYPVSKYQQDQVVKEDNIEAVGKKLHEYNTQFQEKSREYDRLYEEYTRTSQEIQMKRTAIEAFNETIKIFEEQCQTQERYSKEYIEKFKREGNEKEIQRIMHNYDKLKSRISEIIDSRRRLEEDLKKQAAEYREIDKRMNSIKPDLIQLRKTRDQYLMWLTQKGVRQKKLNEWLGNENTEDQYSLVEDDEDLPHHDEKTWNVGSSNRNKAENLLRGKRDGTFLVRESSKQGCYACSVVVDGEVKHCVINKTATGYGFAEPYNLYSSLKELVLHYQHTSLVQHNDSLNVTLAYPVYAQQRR
T5 sequence (O00750 whole entry): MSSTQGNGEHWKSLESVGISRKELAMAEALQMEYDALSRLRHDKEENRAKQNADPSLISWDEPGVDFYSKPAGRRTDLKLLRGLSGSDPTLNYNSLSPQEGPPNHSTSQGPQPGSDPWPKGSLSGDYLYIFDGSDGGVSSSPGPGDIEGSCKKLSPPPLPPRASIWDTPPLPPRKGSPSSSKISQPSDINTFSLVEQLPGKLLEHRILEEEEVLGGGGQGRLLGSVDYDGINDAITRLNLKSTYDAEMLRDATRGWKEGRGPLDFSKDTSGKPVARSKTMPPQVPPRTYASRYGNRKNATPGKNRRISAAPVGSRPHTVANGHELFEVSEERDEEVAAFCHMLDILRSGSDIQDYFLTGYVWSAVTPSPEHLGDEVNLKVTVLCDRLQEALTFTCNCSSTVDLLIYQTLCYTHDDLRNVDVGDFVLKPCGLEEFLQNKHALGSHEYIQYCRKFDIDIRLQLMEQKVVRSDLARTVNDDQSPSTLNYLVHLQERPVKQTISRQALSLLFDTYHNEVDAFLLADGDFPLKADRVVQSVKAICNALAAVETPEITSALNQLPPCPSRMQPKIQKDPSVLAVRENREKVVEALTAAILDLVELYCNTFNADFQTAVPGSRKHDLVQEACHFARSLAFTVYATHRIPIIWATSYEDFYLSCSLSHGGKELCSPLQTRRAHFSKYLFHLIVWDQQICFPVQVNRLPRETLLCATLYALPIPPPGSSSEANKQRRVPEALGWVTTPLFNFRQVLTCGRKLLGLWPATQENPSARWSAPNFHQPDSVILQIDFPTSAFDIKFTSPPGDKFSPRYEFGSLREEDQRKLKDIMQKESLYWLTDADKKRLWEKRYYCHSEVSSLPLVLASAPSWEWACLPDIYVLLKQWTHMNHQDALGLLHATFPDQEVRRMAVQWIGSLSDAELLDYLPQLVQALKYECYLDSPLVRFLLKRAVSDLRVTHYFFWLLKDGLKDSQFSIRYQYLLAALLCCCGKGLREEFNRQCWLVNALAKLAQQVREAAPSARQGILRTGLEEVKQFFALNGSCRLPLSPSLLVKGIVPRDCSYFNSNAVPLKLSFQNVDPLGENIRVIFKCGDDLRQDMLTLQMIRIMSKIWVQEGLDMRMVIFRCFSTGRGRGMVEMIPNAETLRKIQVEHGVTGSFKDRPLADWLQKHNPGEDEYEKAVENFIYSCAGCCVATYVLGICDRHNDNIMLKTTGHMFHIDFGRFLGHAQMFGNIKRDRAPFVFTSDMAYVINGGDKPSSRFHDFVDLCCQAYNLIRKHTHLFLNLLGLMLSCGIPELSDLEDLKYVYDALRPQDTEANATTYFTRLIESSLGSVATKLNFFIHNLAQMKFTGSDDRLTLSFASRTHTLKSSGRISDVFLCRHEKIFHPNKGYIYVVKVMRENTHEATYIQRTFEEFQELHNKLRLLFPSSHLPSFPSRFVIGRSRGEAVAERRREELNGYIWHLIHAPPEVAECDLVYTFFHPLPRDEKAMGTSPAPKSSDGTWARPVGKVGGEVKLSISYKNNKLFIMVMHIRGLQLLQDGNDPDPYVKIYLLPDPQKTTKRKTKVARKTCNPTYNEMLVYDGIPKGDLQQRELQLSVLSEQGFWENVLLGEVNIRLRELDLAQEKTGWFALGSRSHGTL
T2 sequence (P42338 whole entry): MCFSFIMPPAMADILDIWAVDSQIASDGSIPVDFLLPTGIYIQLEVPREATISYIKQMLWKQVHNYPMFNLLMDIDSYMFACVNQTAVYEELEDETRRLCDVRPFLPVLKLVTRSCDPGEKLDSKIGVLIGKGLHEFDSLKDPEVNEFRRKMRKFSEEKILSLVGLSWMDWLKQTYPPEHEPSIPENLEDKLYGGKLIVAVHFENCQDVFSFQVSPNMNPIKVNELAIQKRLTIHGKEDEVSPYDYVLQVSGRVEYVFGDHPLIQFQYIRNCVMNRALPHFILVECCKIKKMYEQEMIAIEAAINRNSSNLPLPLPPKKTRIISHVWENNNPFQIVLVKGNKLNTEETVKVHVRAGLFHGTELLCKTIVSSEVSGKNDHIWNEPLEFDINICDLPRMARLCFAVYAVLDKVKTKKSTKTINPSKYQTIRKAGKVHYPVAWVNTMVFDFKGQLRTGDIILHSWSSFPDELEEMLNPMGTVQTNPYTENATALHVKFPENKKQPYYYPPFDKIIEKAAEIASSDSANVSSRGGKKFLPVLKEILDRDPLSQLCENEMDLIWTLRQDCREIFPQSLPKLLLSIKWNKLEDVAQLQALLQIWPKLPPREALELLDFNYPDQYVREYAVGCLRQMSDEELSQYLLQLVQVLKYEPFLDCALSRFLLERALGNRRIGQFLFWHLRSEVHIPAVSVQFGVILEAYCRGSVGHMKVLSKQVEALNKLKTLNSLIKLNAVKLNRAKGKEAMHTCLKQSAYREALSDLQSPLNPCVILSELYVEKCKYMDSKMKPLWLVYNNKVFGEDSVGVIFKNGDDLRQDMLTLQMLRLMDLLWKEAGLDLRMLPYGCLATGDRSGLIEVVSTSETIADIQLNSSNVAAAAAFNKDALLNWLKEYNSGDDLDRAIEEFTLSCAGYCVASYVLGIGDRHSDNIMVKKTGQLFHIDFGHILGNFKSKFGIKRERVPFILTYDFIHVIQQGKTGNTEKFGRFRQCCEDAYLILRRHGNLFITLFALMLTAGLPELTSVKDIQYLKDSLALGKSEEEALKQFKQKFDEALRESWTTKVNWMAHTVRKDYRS
T2 sequence (P27986 whole entry partner): as the sequence (P27986 whole entry partner, canonical isoform) above

Q: For `Cc1nc(NC(=O)CN)sc1-c1cnc(Cl)c(NS(=O)(=O)c2ccc(C(C)(C)C)cc2)c1` [PI3KD/V-IN-01, 2-amino-N-(5-(5-(4-tert-butylphenylsulfonamido)-6-chloropyridin-3-yl)-4-methylthiazol-2-yl)acetamide], which IC50 (PI3Kα [1]) is on record?
A: 64 nM

Q: And the IC50 (PI3Kβ)?
A: 111 nM

Q: And the IC50 (PI3Kγ)?
A: 119 nM

Q: And the IC50 (PIK3C2A)?
A: > 10000 nM

Q: What about the IC50 (PIK3C2B) of the same compound?
A: > 10000 nM

Q: And the EC50 (PI3Kα [2])?
A: 2970 nM

Q: And the EC50 (PI3Kδ [3])?
A: 11 nM

Q: What about the remaining binding at 1 µM (mTOR kinase) of the same compound?
A: 0%

Q: And the EC50 [4]?
A: 413 nM

Q: What about the “Effect on lysosome marker LAMP1 localization” value [5] of the same compound?
A: affected

Q: What about the GI50 (U937) of the same compound?
A: 2200 nM

Q: And the GI50 (NB4)?
A: 1400 nM

Q: And the GI50 (HL-60)?
A: 2700 nM

Q: And the GI50 (OCI-AML-3 [6])?
A: 2400 nM

Q: What about the GI50 (SKM-1) of the same compound?
A: 1000 nM

Q: And the GI50 (MOLM-14)?
A: 510 nM

Q: And the GI50 (MOLM-14; Homo sapiens, MOLM-14)?
A: < 1000 nM

Q: And the GI50 (MV4-11 [7])?
A: 780 nM

Q: What about the GI50 (MV4-11 [7]; Homo sapiens, MV4-11) of the same compound?
A: < 1000 nM

Q: And the GI50 (HEL)?
A: > 10000 nM

Q: What about the GI50 (HT) of the same compound?
A: 1900 nM

Q: And the GI50 (Namalwa)?
A: 1300 nM

Q: What about the GI50 (Hs 505T) of the same compound?
A: > 10000 nM

Q: And the GI50 (MEC-1)?
A: > 10000 nM

Q: What about the EC50 (OCI-AML-3 [8]) of the same compound?
A: 1000 nM

Q: And the EC50 (MV4-11 [9])?
A: 124 nM

Q: What about the EC50 (MEC-2 [10]) of the same compound?
A: 1580 nM

Q: And the induction of apoptosis (MV4-11 [11])?
A: apparent PARP cleavage observed

Q: And the induction of apoptosis (MEC-2 [12])?
A: only a modest induction of apoptosis

Q: And the “levels of the autophagy markers, LC3BII and p62” value (OCI-AML-2)?
A: concentration-dependent increase

Q: And the “levels of the autophagy markers, LC3BII and p62” value (MV4-11 [13])?
A: not observed

Q: And the cell cycle progression (MV4-11 [14])?
A: arrested in the G0/G1 phase

Q: And the cell cycle progression (OCI-AML-3 [15])?
A: arrested in the G0/G1 phase

Q: And the “Mode of inhibition against PI3Kδ” value (PI3Kδ [16])?
A: ATP competitive inhibitor

— article PMC5288202, “Simultaneous inhibition of Vps34 kinase would enhance PI3Kδ inhibitor cytotoxicity in the B-cell malignancies” (Oncotarget, 2016)
